Measurements from patent US5493027A, “Anticonvulsive agents and uses thereof” (priority 1993, dated 1996).
Read-outs that look alike come from different tables or passages of the source.

Legend:
[1] = system: pentylenetetrazole (Metrazol) induced seizures; assay: Subcutaneous pentylenetetrazole (Metrazol) seizure threshold test (Met) in mice; format: in vivo, male Carworth Farms number-1 mice; conditions: for minimal effective dose: Mus musculus, ip; for (Maximum Ineffective) Intraperitoneal Dose, Met: Table 7, value in parentheses = maximum ineffective dose; for Sc MET / Sc MET repeated: protected: mice i.p.; for Sc MET repeated: protected: repeat
Protocol: (§1) Compounds were screened for anticonvulsant activity in male Carworth Farms number-1 mice. Test solutions of all compounds were prepared in 30% polyethylene glycol 400, and animals were dosed intraperitoneally at either 30 minutes or 4 hours prior to testing. Testing was conducted on four mice at each of three dose levels (30, 100, and 300 mg/kg).
(§2) In the subcutaneous pentylenetetrazole (Metrazol) seizure threshold test(met), 85 mg/kg pentylenetetrazole was administered as a 0.5% solution in the posterior midline. Protection in this test was defined as a failure to observe a single episode of clonic spasms of at least 5 s duration during the 30 minute period following administration of the convulsive agent.
as §1, with “Biological testing--Compounds” for “Compounds”, “number-one” for “number-1”, “min” for “minutes”, “h” for “hours”
as §2, with “test (Met),” for “test(met),”, “min” for “minute”

[2] = Rotorod test for neurological deficit (TOX) in mice; format: in vivo, male Carworth Farms number-1 mice; conditions: mouse, in vivo, ip
Protocol: as §1
(§3) Animals were also tested for neurological deficit using the rotorod. After treatment, the animal was placed on a 1 inch diameter knurled plastic rod rotating at 6 rpm. Neurologic deficit was defined as the failure of the animal to remain on the rod for 1 minute.
as §1, with “Biological testing--Compounds” for “Compounds”, “number-one” for “number-1”, “min” for “minutes”, “h” for “hours”
(§4) Animals were also tested for neurological deficit using the rotorod. After treatment, the animal was placed on a 1 inch diameter knurled plastic rod rotating at 6 rpm. Neurologic deficit was defined as the failure of the animal to remain on the rod for 1 min.

[3] = system: quinolinic acid induced seizures; conditions: intracerebroventricular, CD-1 mice (Baron et al., 1990); cited from earlier work
[4] = system: maximal electroshock seizures (MES); assay: animal or person; format: in vivo, male Carworth Farms number-1 mice; conditions: for minimal effective dose: Mus musculus, ip; for MES: mice i.p.
Protocol: as §1
(§5) Maximal electroshock seizures (MES) were elicited with a 60 cycle alternatiing current of 50-mA intensity (five to seven times that necessary to evoke minimal electroshock threshold seizures). Current was delivered via corneal electrodes for 0.2 s. A drop of 0.9% saline was instilled in the eye prior to application of electrodes. Abolition of the hindlimb tonic extension component of the seizure was defined as protection in the MES test.
as §1, with “Biological testing--Compounds” for “Compounds”, “number-one” for “number-1”, “min” for “minutes”, “h” for “hours”
as §5, with “alternating” for “alternatiing”

[5] = target: T1, strychnine-insensitive glycine binding site of the NMDA receptor (Rattus norvegicus, UniProt P35439); assay: Inhibition of [3H]glycine specific binding (strychnine-insensitive) in rat cerebral cortex membranes; conditions: 10 uM compound
T1 construct: Membranes were prepared from rat cerebral cortex; from tissue; host or cells: rat cerebral cortex, "buffy coat" membranes
Protocol: Binding Studies--Inhibition of [^3 H]glycine specific binding was assayed using [^3 H]glycine (43 Ci/mmol) obtained from DuPont-New England Nuclear. […] Membranes were prepared from rat cerebral cortex and assays were conducted in Na-free 50 mM HEPES (Sigma) at pH 7.4. Membranes were incubated in a final volume of 1 ml with 20 nM [^3 H]glycine and a 10 uM concentration of the test compound. Although experience has shown that [^3 H]glycine binding in this preparation is strychnine insensitive, 10 uM strychnine was added to the assay mixtures to eliminate the possibility that any effects studied could be mediated through a strychnine-sensitive process. Incubation was continued for 20 min at 4° C. Non-specific binding was determined in the presence of 1 mM glycine and subtracted. All conditions were tested in triplicate in 3 different assays. Binding was terminated using a Brandel M-24C cell harvester employing rapid filtration through GF/C glass fiber filters pre-soaked in 1% (V/V) polyethylenimine. Filters were washed twice with 5 ml buffer cooled to 4° C. Radioactivity bound to the filters was determined with a Beckman LS-500OTD liquid scintillation counter.

[6] = system: seizures induced by electroshock and pentylenetetrazole; assay: Anticonvulsant testing, overall (MES and Met); format: in vivo, male Carworth Farms number-1 mice; conditions: for minimal effective dose: Mus musculus, ip, read-out: dose level with anticonvulsant activity (test not given)
Protocol: as §1, §5, §2
as §1, with “Biological testing--Compounds” for “Compounds”, “number-one” for “number-1”, “min” for “minutes”, “h” for “hours”
as §5, with “alternating” for “alternatiing”
as §2, with “test (Met),” for “test(met),”, “min” for “minute”

[7] = system: potentiating action of glycine on current elicited by NMDA; conditions: whole cells (Huettner, 1989); cited from earlier work
[8] = target: T1, strychnine-insensitive glycine binding site of the NMDA receptor; conditions: literature value of the standard; read-out: IC50 for glycine binding in this test system; cited from earlier work
[9] = target: strychnine-insensitive glycine binding site; conditions: see also Kemp et al., 1988; cited from earlier work
NMDA receptor = conditions: cited from earlier work
quisqualate receptor = conditions: cited from earlier work
kainate receptor = conditions: cited from earlier work
[10] = system: NMDA-associated glycine site; conditions: Xenopus oocytes injected with rat brain mRNA (Kleckner and Dingledine, 1989); cited from earlier work
anticonvulsant activity = conditions: Wong et al., 1986; Singh et al., 1990; cited from earlier work
[11] = system: neurological deficit (rotorod); assay: Rotorod test for neurological deficit (TOX) in mice; format: in vivo, male Carworth Farms number-1 mice; conditions: mouse, in vivo
Protocol: as §1, §3
as §1, with “Biological testing--Compounds” for “Compounds”, “number-one” for “number-1”, “min” for “minutes”, “h” for “hours”
as §4

[12] = Solubility in aqueous solutions and in chloroform and other non-polar solvents; format: physicochemical
[13] = system: inhibitory (strychnine-sensitive) glycine receptors in the spinal cord; conditions: White et al. 1989; Huettner 1989; cited from earlier work
[14] = Table 7, value without parentheses = effective dose, read-out: Effective Intraperitoneal Dose, Met
[15] = mice, intraperitoneal, read-out: dose active in Met test
[16] = Table 7, value without parentheses = effective dose, read-out: Effective Intraperitoneal Dose, MES
[17] = mice, intraperitoneal, read-out: dose active in MES test

O=C(O)c1cc(O)c2c(Cl)cc(Cl)cc2n1 [5,7-di-Cl-kyn-2-COOH]
minimal effective dose [1, 14]: 300 mg/kg
minimal effective dose [1, 15]: 300 mg/kg
Met activity ([1]; mice, intraperitoneal): mild Met activity
NOAEL [2]: 300 mg/kg
protection against quinolinic acid induced seizures [3]: protect against quinolinic acid induced seizures

CCOC(=O)c1cc(O)c2c(F)cc(F)cc2n1 [5,7-di-F-kyn-2-ethyl ester]
minimal effective dose [4, 16]: 300 mg/kg
minimal effective dose [4, 17]: 300 mg/kg
MES activity ([4]; mice, intraperitoneal): MES activity at this dose level
(Maximum Ineffective) Intraperitoneal Dose, Met [1]: 300 mg/kg
NOAEL [2]: 300 mg/kg

O=C(O)c1cc2cc(F)ccc2[nH]1 [5-F-indole-2-COOH, 5-fluoro-indole-2-carboxylic acid]
minimal effective dose ([4]; read-out: Effective Intraperitoneal Dose, MES): 100 mg/kg
minimal effective dose ([4]; read-out: dose active in MES test): 100 mg/kg
(Maximum Ineffective) Intraperitoneal Dose, Met [1]: 300 mg/kg
NOAEL ([2]; Table 7, value in parentheses = maximum ineffective dose, read-out: (Maximum Ineffective) Intraperitoneal Dose, Rotorod): 300 mg/kg
[3H]glycine binding inhibition [5]: most potent inhibitor of [^3 H]glycine binding in this group
minimal effective dose [6]: 100 mg/kg
inhibition of potentiating action of glycine on NMDA current [7]: inhibit competitively the potentiating action of glycine

CCCCOC(=O)c1cc2cc(F)ccc2[nH]1 [5-F-indole-2-butyl ester, butyl ester of 5-fluoro-indole-2-carboxylic acid]
minimal effective dose [1, 14]: 300 mg/kg
minimal effective dose [1, 15]: 300 mg/kg
NOAEL [2]: 300 mg/kg
[3H]glycine binding inhibition [5]: binding characteristics were similar to those of the ethyl ester
minimal effective dose ([6]; mice, intraperitoneal): 300 mg/kg

CCOC(=O)c1cc2cc(F)ccc2[nH]1 [5-F-indole-2-ethyl ester, 5-fluoro-indole-2-ethyl carboxylate]
minimal effective dose [4, 16]: 100 mg/kg
minimal effective dose [4, 17]: 100 mg/kg
minimal effective dose [1, 14]: 300 mg/kg
minimal effective dose [1, 15]: 300 mg/kg
NOAEL [2]: 300 mg/kg

O=C(O)c1cc(O)c2ccc(Cl)cc2n1 [7-Cl-Kyn, 7-chloro-kynurenic acid]
IC50 [8]: 0.27 to 0.56 µM
IC50 [9]: 0.56 µM
IC50 (NMDA receptor; see also Kemp et al., 1988): 169 µM
IC50 (quisqualate receptor; see also Kemp et al., 1988): 153 µM
IC50 (kainate receptor; see also Kemp et al., 1988, unit inferred): > 1000 µM
more potent as antagonist at the NMDA-associated glycine site than at the receptor mediating kainate currents [10]: approximately 40 fold
anticonvulsant activity (words, literature) (anticonvulsant activity): demonstrate anticonvulsant activity

C[C@]12N[C@H](Cc3ccccc31)c1ccccc12 [MK-801]
anticonvulsant activity (words, literature) (anticonvulsant activity): demonstrate anticonvulsant activity

CCOC(=O)c1cc(NC)c2c(Cl)cc(Cl)cc2n1 [ethyl 4-methylamino-5,7-dichloro-2-quinoline carboxylate]
MES ([4]; 30 minutes, 30 mg/kg): 0/1
MES ([4]; 30 minutes, 100 mg/kg): 0/3
MES ([4]; 30 minutes, 300 mg/kg): 0/1
MES ([4]; 4 hours, 30 mg/kg): 0/1
MES ([4]; 4 hours, 100 mg/kg): 0/3
MES ([4]; 4 hours, 300 mg/kg): 0/1
minimal effective dose [4, 17]: 30 mg/kg
Sc MET ([1]; 30 minutes, 30 mg/kg): 1/1
Sc MET ([1]; 30 minutes, 100 mg/kg): 1/1
Sc MET ([1]; 30 minutes, 300 mg/kg): 1/1
Sc MET ([1]; 4 hours, 30 mg/kg): 0/1
Sc MET ([1]; 4 hours, 100 mg/kg): 0/1
Sc MET ([1]; 4 hours, 300 mg/kg): 0/1
minimal effective dose [1, 14]: 30 mg/kg
minimal effective dose [1, 15]: 30 mg/kg
Sc MET repeated: protected ([1]; 30 minutes, 30 mg/kg): 1/4
Sc MET repeated: protected ([1]; 30 minutes, 100 mg/kg): 2/4
Sc MET repeated: protected ([1]; 30 minutes, 300 mg/kg): 4/4
NOAEL [2]: 300 mg/kg
Sc MET repeated: toxic ([11]; 30 mg/kg): 0/4
Sc MET repeated: toxic ([11]; 100 mg/kg): 0/4
Sc MET repeated: toxic ([11]; 300 mg/kg): 0/4
[3H]glycine binding inhibition [5]: poor binding inhibition
minimal effective dose ([6]; mice, intraperitoneal): ≤ 100 mg/kg
CLASS ([6]; Phase I Identification: mice, i.p., classes not defined in the patent): 1
anticonvulsant activity (words) ([6]; mice, intraperitoneal): high anticonvulsant activity
anticonvulsant activity (words) ([6]; mice, intraperitoneal, listed as ethyl 4-methylamino-5,7-dichloro-2-quinoline carboxylate): most potent anticonvulsant
anticonvulsant activity (words) ([6]; mice, intraperitoneal, listed as ethyl-4-methylamino-5,7-dichloro-2-quinoline carboxylate): particularly effective anticonvulsant agent
solubility in chloroform and other non-polar solvents [12]: appreciably soluble in chloroform and other non-polar solvents

O=C(O)c1cc2ccccc2[nH]1 [indole-2-carboxylic acid]
activity at strychnine-sensitive sites [13]: inactive

O=C(O)c1cc(O)c2ccccc2n1 [kynurenic acid, 4-hydroxy-2-quinolinecarboxylic acid]
excitatory amino acid antagonist activity at NMDA receptors (NMDA receptor): nonselective excitatory amino acid antagonist
excitatory amino acid antagonist activity at quisqualate receptors (quisqualate receptor): nonselective excitatory amino acid antagonist
excitatory amino acid antagonist activity at kainate receptors (kainate receptor): nonselective excitatory amino acid antagonist
activity at strychnine-sensitive sites [13]: inactive
